For 9 molecules, IC50, Activity and inhibition results are on record in ChEMBL document CHEMBL5346899, “PKM2/PDK1 dual-targeted shikonin derivatives restore the sensitivity of EGFR-mutated NSCLC cells to gefitinib by remodeling glucose metabolism” (Eur J Med Chem, 2023).

The source made the active and inactive calls. The calls are words filed in the database; no cut-off is given here.

Data set [1] relates to NCI-H1299. The experiment in a line: cells. The note with it: Homo sapiens, NCI-H1299, 24 h. The data set is classed as functional, cell-based.
Description: Antiproliferative activity against human NCI-H1299 cells assessed as inhibition of cell growth incubated for 24 hrs by CCK-8 assay
The subject of the next data set is HCC827. The data set is described as follows: cells. The format is functional, cell-based. The note with it: Homo sapiens, HCC827, 24 h.
A further data set in a line: in vitro. The note with it: human, HEK293T cells.
Another data set has as its system NCI-H1975. The data set is described as follows: cells. The note with it: Homo sapiens, NCI-H1975, 24 h. The format is functional, cell-based.
The subject of another data set is A549. The data set is described as follows: cells. The format is functional, cell-based. The following applies: Homo sapiens, A549, 24 h.
Data set [2] deals with NCI-H1299. The data set is described as follows: Induction of apoptosis in human NCI-H1299 cells assessed as late apoptotic cells at 500 micromol/L incubated for 24 hrs by Annexin V-FITC/PI staining based analysis (reference value: 2.63%). The format is functional. The following applies: dose 500 µmol/L, at 500 µM.
In data set [3] the test system is NCI-H1299. The experiment in a line: Induction of apoptosis in human NCI-H1299 cells assessed as early apoptotic cells at 500 micromol/L incubated for 24 hrs by Annexin V-FITC/PI staining based analysis (reference value: 0.772%). The data set is classed as functional. The note with it: dose 500 µmol/L, at 500 µM.
Data set [4] relates to NCI-H1299. The data set is described as follows: Inhibition of glycolysis in human NCI-H1299 cells assessed as reduction in glucose consumption incubated for 24 hrs in presence of ML265 by colorimetric assay. The format is functional, cell-based.
For data set [5], the system named is NCI-H1299. The data set is described as follows: Induction of apoptosis in human NCI-H1299 cells assessed as live cells at 500 micromol/L incubated for 24 hrs in presence of ML265 by Annexin V-FITC/PI staining based analysis (reference value: 96.6%). The note with it: dose 500 µmol/L, at 500 µM. The format is functional.
Data set [6] deals with NCI-H1299. The experiment in a line: Induction of apoptosis in human NCI-H1299 cells assessed as early apoptotic cells at 500 micromol/L incubated for 24 hrs in presence of ML265 by Annexin V-FITC/PI staining based analysis (reference value: 0.772%). The following applies: dose 500 µmol/L, at 500 µM. The data set is classed as functional.
The subject of data set [7] is NCI-H1299. The experiment in a line: Synergistic inhibition of NADPH production in human NCI-H1299 cells incubated for 2 hrs in presence of ML265 by NADP+/NADPH assay. The data set is classed as functional, cell-based.
The test system of data set [8] is NCI-H1299. The data set is described as follows: Synergistic induction of oxidative phosphorylation in human NCI-H1299 cells assessed as increase in ATP production in presence of ML265 by luminescence based assay. The data set is classed as functional, cell-based.
The test system of data set [9] is NCI-H1299. The data set is described as follows: Induction of apoptosis in human NCI-H1299 cells assessed as dead cells at 500 micromol/L incubated for 24 hrs in presence of ML265 by Annexin V-FITC/PI staining based analysis (reference value: 0.021%). The following applies: dose 500 µmol/L, at 500 µM. The data set is classed as functional.
Data set [10] deals with NCI-H1299. The experiment in a line: Inhibition of glycolysis in human NCI-H1299 cells assessed as reduction in lactate production incubated for 1 hrs in presence of ML265 by colorimetric assay. The format is functional, cell-based.
The test system of data set [11] is NCI-H1299. The data set is described as follows: Induction of apoptosis in human NCI-H1299 cells assessed as live cells at 500 micromol/L incubated for 24 hrs by Annexin V-FITC/PI staining based analysis (reference value: 96.6%). The data set is classed as functional. The following applies: dose 500 µmol/L, at 500 µM.
In data set [12] the test system is NCI-H1299. The experiment in a line: Antitumor activity against human NCI-H1299 cells xenografted in mouse assessed as pathological damage to tumor tissue administered in presence of ML265. The data set is classed as functional. (A xenograft is tissue or cells of one species grown in another, often human tumour cells in immunodeficient mice.)
Data set [13] has as its system NCI-H1299. The experiment in a line: Induction of apoptosis in human NCI-H1299 cells assessed as late apoptotic cells at 500 micromol/L incubated for 24 hrs in presence of ML265 by Annexin V-FITC/PI staining based analysis (reference value: 2.63%). The note with it: dose 500 µmol/L, at 500 µM. The data set is classed as functional.
Data set [14] relates to NCI-H1299. The data set is described as follows: Synergistic antiproliferative activity against human NCI-H1299 cells assessed as cell growth inhibition at 500 micromol/L incubated for 24 hrs in presence of ML265 by CCK-8 analysis. The data set is classed as functional, cell-based. The following applies: dose 500.0 µmol/L.
Data set [15] relates to NCI-H1299. The experiment in a line: Induction of apoptosis in human NCI-H1299 cells assessed as dead cells at 500 micromol/L incubated for 24 hrs by Annexin V-FITC/PI staining based analysis (reference value: 0.021%). The data set is classed as functional. The following applies: dose 500 µmol/L, at 500 µM.

Description for A549: Antiproliferative activity against human A549 cells assessed as inhibition of cell growth incubated for 24 hrs by CCK-8 assay
Description for HCC827: Antiproliferative activity against human HCC827 cells assessed as inhibition of cell growth incubated for 24 hrs by CCK-8 assay
Description for NCI-H1975: Antiproliferative activity against human NCI-H1975 cells assessed as inhibition of cell growth incubated for 24 hrs by CCK-8 assay
Description for in vitro: Cytotoxicity against HEK293T cells assessed as inhibition of cell growth incubated for 24 hrs by CCK-8 assay

For `COC(=O)[C@H](CS[C@H](CC=C(C)C)C1=CC(=O)c2c(O)ccc(O)c2C1=O)NC(=O)CCCC[C@@H]1CCSC(c2ccc(Br)cc2)S1` (some centres undefined), the IC50 was found to be 3.27 µM with NCI-H1299 [1], 13.2 µM in the data set on HCC827, 4.68 µM with NCI-H1975 and 18.1 µM with A549. Further, half-maximal inhibition in the data set “in vitro” (IC50 at 24 h) was put at 88.8 µM.

As for `CN(C)C(=O)c1ccc(S(=O)(=O)c2ccc(NC(=O)[C@@](C)(O)C(F)(F)F)c(Cl)c2)cc1`, the Activity with NCI-H1299 [2] was 12.1%; in the data set on NCI-H1299 [3] it was 28.9%; in the data set with NCI-H1299 [5], 20.6%; in the data set with NCI-H1299 [6], 7.63%; in the data set on NCI-H1299 [9], 0%; with NCI-H1299 [11] it was 59%. The Activity in the data set on NCI-H1299 [13] is 71.7%; with NCI-H1299 [15], 0.01%. For the same molecule, the inhibition entry in the data set on NCI-H1299 [4], with NCI-H1299 [7] and in the data set on NCI-H1299 [10] was “Active” each time. The result in the data set with NCI-H1299 [8], in the data set with NCI-H1299 [12] and in the data set on NCI-H1299 [14] was Active.

Consider `COC(=O)[C@H](CS[C@H](CC=C(C)C)C1=CC(=O)c2c(O)ccc(O)c2C1=O)NC(=O)CCCC[C@@H]1CCSC(c2ccc(C)cc2)S1` (some centres undefined), for which the half-maximal inhibitory concentration (IC50) with NCI-H1299 [1] is 10.5 µM; with HCC827, 10.4 µM; in the data set with NCI-H1975, 4.12 µM; in the data set with A549, 12.4 µM. The IC50 at 24 h in “in vitro” is 80.4 µM.

As to `COC(=O)[C@H](CS[C@H](CC=C(C)C)C1=CC(=O)c2c(O)ccc(O)c2C1=O)NC(=O)CCCC[C@@H]1CCSC(c2cccc(C(F)(F)F)c2)S1` (some centres undefined), the IC50 in the data set with NCI-H1299 [1] amounted to 3.53 µM; in the data set with HCC827 it was 4.34 µM; in the data set with NCI-H1975, 3.66 µM; with A549, 4.59 µM. The molecule also had an IC50 at 24 h in “in vitro” of 83.8 µM.

As to `COC(=O)[C@H](CS[C@H](CC=C(C)C)C1=CC(=O)c2c(O)ccc(O)c2C1=O)NC(=O)CCCC[C@@H]1CCSC(c2ccc([N+](=O)[O-])cc2)S1` (some centres undefined), the IC50 came to 5.34 µM with NCI-H1299 [1], 25.9 µM with HCC827, 17 µM in the data set with NCI-H1975 and 21.8 µM in the data set with A549. Also, the IC50 at 24 h in “in vitro” was 94.2 µM.

Consider `COC(=O)[C@H](CS[C@H](CC=C(C)C)C1=CC(=O)c2c(O)ccc(O)c2C1=O)NC(=O)CCCC[C@@H]1CCSC(c2ccc(C(C)C)cc2)S1` (some centres undefined), for which the IC50 in the data set with NCI-H1299 [1] was 4.93 µM; in the data set with HCC827, 4.21 µM; with NCI-H1975 it was 4.08 µM; in the data set with A549 it was 4.21 µM. Also, the IC50 at 24 h in the data set “in vitro” worked out at 77.5 µM.

`COC(=O)[C@H](CS[C@H](CC=C(C)C)C1=CC(=O)c2c(O)ccc(O)c2C1=O)NC(=O)CCCC[C@@H]1CCSC(c2ccc(OC)cc2)S1` (some centres undefined): the IC50 came to 2.81 µM in the data set with NCI-H1299 [1], 6.44 µM in the data set with HCC827, 2.71 µM in the data set with NCI-H1975 and 2.34 µM in the data set with A549. Also, the 50% inhibitory concentration (IC50) at 24 h in the data set “in vitro” was determined as 86.2 µM.

Take `COC(=O)[C@H](CS[C@H](CC=C(C)C)C1=CC(=O)c2c(O)ccc(O)c2C1=O)NC(=O)CCCC[C@@H]1CCSC(c2ccc(C(F)(F)F)cc2)S1` (some centres undefined): the IC50 was found to be 4.58 µM in the data set with NCI-H1299 [1], 7.15 µM with HCC827, 2.32 µM in the data set on NCI-H1975 and 6.49 µM with A549. In the data set “in vitro”, this molecule came in with an IC50 at 24 h of 84.9 µM.

In the case of `COC(=O)[C@H](CS[C@H](CC=C(C)C)C1=CC(=O)c2c(O)ccc(O)c2C1=O)NC(=O)CCCC[C@@H]1CCSC(c2ccccc2)S1` (some centres undefined), the concentration for half-maximal inhibition (IC50) was 6.33 µM with NCI-H1299 [1], 6.09 µM in the data set on HCC827, 11.5 µM in the data set with NCI-H1975 and 8.6 µM with A549. Besides, the IC50 at 24 h in “in vitro” amounted to 95.5 µM.

As usually defined, the IC50 is the midpoint of a concentration-inhibition curve. Higher therefore signals weaker potency.
